# Data as given in the kinase profiling compilation of Christmann-Franck et al. (2016).
# Columns and labels:
# Test in all cases: radiometric filter-binding kinase assay, Kinase HotSpot
# Conditions in all cases: compound 0.5 µM; ATP 10 µM
# [1] = target: STK33 (human) (UniProt Q9BYT3)
# [2] = target: TXK (human) (UniProt P42681)
# [3] = target: BRSK1 (human) (UniProt Q8TDC3)
# [4] = target: HIPK2 (human) (UniProt Q9H2X6)
# [5] = target: NUAK1 (human) (UniProt O60285)
# [6] = target: CDK9 CCNT1 (human) (UniProt P50750+O60563)
# [7] = target: CDC42BPB (human) (UniProt Q9Y5S2)
# [8] = target: EPHB3 (human) (UniProt P54753)
# [9] = target: NTRK1 (human) (UniProt P04629)
# [10] = target: GRK4 (human) (UniProt P32298)
# [11] = target: RPS6KA1 KD1 KD2 (human) (UniProt Q15418)
# [12] = target: EPHA4 (human) (UniProt P54764)
# [13] = target: CDK2 CCNA2 (human) (UniProt P24941+P20248)
# Chain of CDK2 CCNA2 (human) (P20248 whole entry, looked up, other chains not shown): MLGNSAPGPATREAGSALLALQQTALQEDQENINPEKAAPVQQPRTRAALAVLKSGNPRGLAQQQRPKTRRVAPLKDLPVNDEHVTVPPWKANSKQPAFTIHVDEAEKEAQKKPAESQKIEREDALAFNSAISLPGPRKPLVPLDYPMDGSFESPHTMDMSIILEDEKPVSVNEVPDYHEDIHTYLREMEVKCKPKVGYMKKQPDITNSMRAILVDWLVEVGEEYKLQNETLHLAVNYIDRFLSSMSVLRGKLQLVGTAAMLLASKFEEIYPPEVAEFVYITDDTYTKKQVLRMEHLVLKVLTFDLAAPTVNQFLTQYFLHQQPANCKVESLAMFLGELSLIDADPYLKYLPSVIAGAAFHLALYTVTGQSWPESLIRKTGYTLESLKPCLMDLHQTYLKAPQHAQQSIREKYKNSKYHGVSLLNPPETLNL
# [14] = target: MAP3K8 (human) (UniProt P41279)
# [15] = target: MERTK (human) (UniProt Q12866)
# [16] = target: CSNK1G3 (human) (UniProt Q9Y6M4)
# [17] = target: CSNK1E (human) (UniProt P49674)
# [18] = target: JAK3 JH1 JH2 (human) (UniProt P52333)
# [19] = target: TAOK2 (human) (UniProt Q9UL54)
# [20] = target: EPHA8 (human) (UniProt P29322)
# [21] = target: MARK2 (human) (UniProt Q7KZI7)
# [22] = target: ABL2 (human) (UniProt P42684)
# [23] = target: STK11 (human) (UniProt Q15831)
# [24] = target: MAPK9 (human) (UniProt P45984)
# Chain of MAPK9 (human) (P45984 whole entry, looked up): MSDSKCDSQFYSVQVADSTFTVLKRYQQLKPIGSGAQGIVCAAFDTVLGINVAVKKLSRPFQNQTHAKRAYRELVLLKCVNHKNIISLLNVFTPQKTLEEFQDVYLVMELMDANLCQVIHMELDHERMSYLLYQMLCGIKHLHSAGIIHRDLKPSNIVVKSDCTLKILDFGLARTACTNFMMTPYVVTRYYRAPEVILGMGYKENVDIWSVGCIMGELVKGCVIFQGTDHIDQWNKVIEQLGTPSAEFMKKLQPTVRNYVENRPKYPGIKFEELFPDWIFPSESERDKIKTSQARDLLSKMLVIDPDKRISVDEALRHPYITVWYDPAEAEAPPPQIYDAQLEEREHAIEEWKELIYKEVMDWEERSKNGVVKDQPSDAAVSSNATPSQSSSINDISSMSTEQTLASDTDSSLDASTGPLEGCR
# [25] = target: NEK3 (human) (UniProt P51956)
# [26] = target: GRK6 (human) (UniProt P43250)
# [27] = target: PIM2 (human) (UniProt Q9P1W9)
# Chain of PIM2 (human) (Q9P1W9 whole entry, looked up): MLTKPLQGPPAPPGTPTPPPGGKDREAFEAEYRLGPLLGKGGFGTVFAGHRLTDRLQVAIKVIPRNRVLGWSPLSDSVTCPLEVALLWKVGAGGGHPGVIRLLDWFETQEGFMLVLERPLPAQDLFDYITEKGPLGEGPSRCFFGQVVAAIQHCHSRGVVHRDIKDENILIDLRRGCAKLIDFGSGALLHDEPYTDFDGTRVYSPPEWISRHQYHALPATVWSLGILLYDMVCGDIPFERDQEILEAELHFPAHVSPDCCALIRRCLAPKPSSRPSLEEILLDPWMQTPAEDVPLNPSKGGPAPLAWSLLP
# [28] = target: FLT1 (human) (UniProt P17948)
# [29] = target: KDR (human) (UniProt P35968)
# Chain of KDR (human) (P35968 whole entry, looked up): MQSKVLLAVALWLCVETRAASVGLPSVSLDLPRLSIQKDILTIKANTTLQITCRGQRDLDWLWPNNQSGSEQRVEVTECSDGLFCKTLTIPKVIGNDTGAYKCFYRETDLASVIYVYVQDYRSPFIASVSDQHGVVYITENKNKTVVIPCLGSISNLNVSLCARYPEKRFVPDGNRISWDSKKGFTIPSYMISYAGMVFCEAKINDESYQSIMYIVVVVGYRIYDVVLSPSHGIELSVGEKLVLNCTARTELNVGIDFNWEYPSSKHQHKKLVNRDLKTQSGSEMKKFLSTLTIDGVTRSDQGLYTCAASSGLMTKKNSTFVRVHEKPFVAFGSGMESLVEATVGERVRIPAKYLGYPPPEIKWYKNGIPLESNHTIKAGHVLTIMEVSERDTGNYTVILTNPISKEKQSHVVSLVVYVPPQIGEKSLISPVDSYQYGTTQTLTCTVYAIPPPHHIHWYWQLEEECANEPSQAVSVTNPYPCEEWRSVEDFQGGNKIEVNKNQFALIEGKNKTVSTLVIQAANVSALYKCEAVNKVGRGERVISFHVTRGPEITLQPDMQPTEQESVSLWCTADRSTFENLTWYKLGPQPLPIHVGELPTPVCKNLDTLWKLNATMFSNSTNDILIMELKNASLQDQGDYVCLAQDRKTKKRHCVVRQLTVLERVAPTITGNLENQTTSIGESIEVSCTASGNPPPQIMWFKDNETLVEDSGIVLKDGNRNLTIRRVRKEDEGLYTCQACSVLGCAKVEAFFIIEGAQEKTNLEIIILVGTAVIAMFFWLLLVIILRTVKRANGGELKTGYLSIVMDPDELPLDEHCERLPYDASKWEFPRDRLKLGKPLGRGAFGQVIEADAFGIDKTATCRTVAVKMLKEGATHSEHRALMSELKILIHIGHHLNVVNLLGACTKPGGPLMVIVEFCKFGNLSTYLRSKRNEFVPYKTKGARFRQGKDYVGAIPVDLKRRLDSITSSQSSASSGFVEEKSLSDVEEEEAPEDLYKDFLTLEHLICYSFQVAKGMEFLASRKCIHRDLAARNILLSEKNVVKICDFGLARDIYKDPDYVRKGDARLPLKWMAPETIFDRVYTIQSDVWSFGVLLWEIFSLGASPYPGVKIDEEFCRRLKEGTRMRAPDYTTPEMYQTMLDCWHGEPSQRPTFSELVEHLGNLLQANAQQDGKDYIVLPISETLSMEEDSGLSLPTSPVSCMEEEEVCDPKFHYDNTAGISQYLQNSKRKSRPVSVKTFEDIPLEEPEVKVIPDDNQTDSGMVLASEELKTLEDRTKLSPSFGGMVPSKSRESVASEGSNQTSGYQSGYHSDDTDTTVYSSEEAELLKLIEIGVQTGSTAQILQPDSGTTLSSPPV
# [30] = target: NLK (human) (UniProt Q9UBE8)
# Chain of NLK (human) (Q9UBE8 whole entry, looked up): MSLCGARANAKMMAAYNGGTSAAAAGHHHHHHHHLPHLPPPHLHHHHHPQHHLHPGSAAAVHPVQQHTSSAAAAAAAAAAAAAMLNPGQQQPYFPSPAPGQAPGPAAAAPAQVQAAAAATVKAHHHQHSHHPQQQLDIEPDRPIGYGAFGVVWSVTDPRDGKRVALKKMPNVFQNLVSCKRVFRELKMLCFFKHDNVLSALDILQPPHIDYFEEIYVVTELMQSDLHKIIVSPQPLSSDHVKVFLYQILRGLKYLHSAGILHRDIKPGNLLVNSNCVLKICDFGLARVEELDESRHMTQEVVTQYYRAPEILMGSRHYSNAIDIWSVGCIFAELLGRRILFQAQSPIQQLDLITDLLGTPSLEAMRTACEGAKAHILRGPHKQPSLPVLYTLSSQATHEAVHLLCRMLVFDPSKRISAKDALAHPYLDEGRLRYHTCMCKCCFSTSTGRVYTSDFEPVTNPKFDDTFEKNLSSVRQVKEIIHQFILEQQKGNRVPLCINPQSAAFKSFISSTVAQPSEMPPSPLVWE
# [31] = target: ACVR1B (human) (UniProt P36896)
# [32] = target: PRKCA (human) (UniProt P17252)
# [33] = target: MET (human) (UniProt P08581)
# [34] = target: MYLK (human) (UniProt Q15746)
# [35] = target: PHKG2 (human) (UniProt P15735)
# Chain of PHKG2 (human) (P15735 whole entry, looked up): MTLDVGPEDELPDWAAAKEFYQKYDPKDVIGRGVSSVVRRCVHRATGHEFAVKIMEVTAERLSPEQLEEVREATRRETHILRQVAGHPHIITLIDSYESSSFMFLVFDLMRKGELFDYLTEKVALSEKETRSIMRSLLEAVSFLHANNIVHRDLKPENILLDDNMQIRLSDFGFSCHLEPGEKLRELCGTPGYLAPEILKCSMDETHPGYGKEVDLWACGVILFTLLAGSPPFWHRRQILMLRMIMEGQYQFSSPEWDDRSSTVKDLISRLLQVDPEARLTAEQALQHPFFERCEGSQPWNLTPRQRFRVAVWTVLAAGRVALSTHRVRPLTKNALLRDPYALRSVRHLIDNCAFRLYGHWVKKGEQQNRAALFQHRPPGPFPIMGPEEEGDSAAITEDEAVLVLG
# [36] = target: STK3 (human) (UniProt Q13188)
# [37] = target: RIPK2 (human) (UniProt O43353)
# [38] = target: NUAK2 (human) (UniProt Q9H093)
# [39] = target: ADRBK2 (human) (UniProt P35626)
# [40] = target: AURKA (human) (UniProt O14965)
# Chain of AURKA (human) (O14965 whole entry, looked up): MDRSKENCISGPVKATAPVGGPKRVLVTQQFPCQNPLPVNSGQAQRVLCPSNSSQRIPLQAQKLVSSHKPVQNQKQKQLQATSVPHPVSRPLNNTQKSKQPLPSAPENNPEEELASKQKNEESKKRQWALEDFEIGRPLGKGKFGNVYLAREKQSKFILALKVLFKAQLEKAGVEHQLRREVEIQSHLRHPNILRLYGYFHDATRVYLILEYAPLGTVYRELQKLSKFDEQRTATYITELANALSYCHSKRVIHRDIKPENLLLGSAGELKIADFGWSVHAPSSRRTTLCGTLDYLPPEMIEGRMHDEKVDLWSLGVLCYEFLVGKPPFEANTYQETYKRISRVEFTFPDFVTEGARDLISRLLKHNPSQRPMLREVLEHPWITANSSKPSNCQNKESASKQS
# [41] = target: MAPKAPK5 (human) (UniProt Q8IW41)
# Chain of MAPKAPK5 (human) (Q8IW41 whole entry, looked up): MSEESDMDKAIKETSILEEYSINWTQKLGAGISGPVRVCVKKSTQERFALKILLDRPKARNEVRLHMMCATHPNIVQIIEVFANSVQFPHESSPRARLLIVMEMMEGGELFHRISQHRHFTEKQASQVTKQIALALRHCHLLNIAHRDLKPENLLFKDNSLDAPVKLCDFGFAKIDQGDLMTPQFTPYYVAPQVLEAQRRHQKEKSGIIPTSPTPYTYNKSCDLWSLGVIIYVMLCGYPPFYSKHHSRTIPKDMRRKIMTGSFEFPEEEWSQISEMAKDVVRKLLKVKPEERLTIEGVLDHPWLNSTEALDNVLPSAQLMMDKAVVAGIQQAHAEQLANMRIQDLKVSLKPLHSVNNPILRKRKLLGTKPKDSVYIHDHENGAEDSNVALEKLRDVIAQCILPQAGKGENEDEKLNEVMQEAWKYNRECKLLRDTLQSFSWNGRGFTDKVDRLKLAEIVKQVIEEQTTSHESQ
compound,measurement,setting,value
NC(=O)c1ccc(N(C(N)=O)c2c(F)cccc2F)nc1-c1ccc(F)cc1F,residual activity,[1],94%
same,residual activity,[2],104%
same,residual activity,[3],94.2%
same,residual activity,[4],100%
same,residual activity,[5],108%
same,residual activity,[6],96.7%
same,residual activity,[7],96.5%
same,residual activity,[8],65.8%
same,residual activity,[9],96.3%
same,residual activity,[10],90.7%
same,residual activity,[11],109%
same,residual activity,[12],105%
same,residual activity,[13],87.8%
same,residual activity,[14],94.3%
same,residual activity,[15],114%
same,residual activity,[16],103%
same,residual activity,[17],98.2%
same,residual activity,[18],95.7%
same,residual activity,[19],98.7%
same,residual activity,[20],98.7%
same,residual activity,[21],131%
same,residual activity,[22],100%
same,residual activity,[23],99.5%
same,residual activity,[24],93.5%
same,residual activity,[25],96%
same,residual activity,[26],97.1%
same,residual activity,[27],98.3%
same,residual activity,[28],102%
same,residual activity,[29],96.5%
same,residual activity,[30],15.8%
same,residual activity,[31],113%
same,residual activity,[32],86%
same,residual activity,[33],89.4%
same,residual activity,[34],101%
same,residual activity,[35],93.1%
same,residual activity,[36],94.1%
same,residual activity,[37],101%
same,residual activity,[38],98.7%
same,residual activity,[39],98.1%
same,residual activity,[40],86.4%
same,residual activity,[41],93.4%
Nc1nc(Nc2ccc(S(N)(=O)=O)cc2)nn1C(=S)Nc1c(F)cccc1F,residual activity,[1],35.1%
same,residual activity,[2],85.8%
same,residual activity,[3],2.61%
same,residual activity,[4],62.1%
same,residual activity,[5],2.13%
same,residual activity,[6],15.6%
same,residual activity,[7],48.1%
same,residual activity,[8],90.4%
same,residual activity,[9],31.7%
same,residual activity,[10],92.2%
same,residual activity,[11],5.34%
same,residual activity,[12],54.8%
same,residual activity,[13],1.56%
same,residual activity,[14],127%
same,residual activity,[15],14.8%
same,residual activity,[16],20.8%
same,residual activity,[17],91.8%
same,residual activity,[18],5.21%
same,residual activity,[19],11.5%
same,residual activity,[20],98.5%
same,residual activity,[21],3.43%
same,residual activity,[22],10.5%
same,residual activity,[23],23.5%
same,residual activity,[24],80.9%
same,residual activity,[25],19.6%
same,residual activity,[26],89.4%
same,residual activity,[27],106%
same,residual activity,[28],11.4%
same,residual activity,[29],6.55%
same,residual activity,[30],45.1%
same,residual activity,[31],92.2%
same,residual activity,[32],46.2%
same,residual activity,[33],40.4%
same,residual activity,[34],78.8%
same,residual activity,[35],95.5%
same,residual activity,[36],1.33%
same,residual activity,[37],19.7%
same,residual activity,[38],9.73%
same,residual activity,[39],88%
same,residual activity,[40],1.44%
same,residual activity,[41],52.2%
